Patent US20230242641A1, “SLAMF7 CARS” (JULIUS-MAXIMILIANS-UNIVERSITÄT WÜRZBURG, priority 2020, published 2023)
Like-named read-outs stand apart in the source and are kept apart here. One block for each molecule: values may come before it.

Legend:
[1] = tested on: CAR-T cell-induced CRS; conditions: 45 pediatric and adult patients; 31 patients; 95% CI: 53%-82%; cited from earlier work
[2] = tested on: MM.1S cells; conditions: cited from earlier work
[3] = tested on: CD34+ hematopoietic stem cells; conditions: cited from earlier work
[4] = tested on: multiple myeloma; conditions: cited from earlier work
[5] = tested on: SLAMF7; conditions: cited from earlier work
[6] = biological target: T1, mouse SLAMF7 molecule linked to a Twin-Strep Tag (mice, UniProt Q8BHK6 23-224, limits assumed); assay: flow cytometry: LV-RP cells incubated with Twin-Strep tagged SLAMF7 of different species, stained with anti-Strep Tag antibody (FIG. 37)
T1 construct: also called SLAMF7 of mice; not shown: Twin-Strep Tag
From the text: SLAMF7 molecules linked to a Twin-Strep Tag were stained by an anti-Strep Tag antibody.

Molecule: tocilizumab: recombinant humanized monoclonal antibody that blocks IL-6 from binding to its receptor
patients achieving a response (resolution of CRS within 14 days of the first dose) [1]: 69%

Molecule: Elotuzumab: SLAMF7-specific monoclonal antibody huLuc63
eradication of MM.1S ([2]; after 72 hours of treatment): less than 70% | binding to CD34+ hematopoietic stem cells [3]: No binding | interim overall survival rate ([4]; after three years): 60% | rate of progression-free survival ([4]; at one year after beginning of treatment, elotuzumab group vs control group (only Lenalidomid and dexmethason)): 68% | infection rate compared to the control group ([4]; in vivo): No significant increase in the infection rate | lymphocyte reduction after the initial infusion ([4]; in vivo): 77% | species cross-reactivity [5]: lack of species cross-reactivity

Molecule: N[C@@H](Cc1ccc(N(CCCl)CCCl)cc1)C(=O)O [Melphalan]
eradication of MM.1S ([2]; after 48 hours of treatment): less than 40%

Molecule: CC(C)C[C@H](NC(=O)[C@H](Cc1ccccc1)NC(=O)c1cnccn1)B(O)O [Bortezomib]
eradication of MM.1S ([2]; after 72 hours of treatment): less than 30%

Molecule: Nc1cccc2c1CN(C1CCC(=O)NC1=O)C2=O (stereo not drawn) [Lenalidomide]
eradication of MM.1S ([2]; after 72 hours of treatment): about 40%

binding result [6]: no binding
B1: SLAMF7 binding chimeric antigen receptor (CAR) polypeptide, expressed on human T cells (other)
chain: EVQLVESGGGLVQPGGSLRLSCAASGFDFSRYWMSWVRQAPGKGLEWIGEINPDSSTINYAPSLKDKFIISRDNAKNSLYLQMNSLRAEDTAVYYCARPDGNYWYFDVWGQGTLVTVSSGGGGSGGGGSGGGGSDIQMTQSPSSLSASVGDRVTITCKASQDVGIAVAWYQQKPGKVPKLLIYWASTRHTGVPDRFSGSGSGTDFTLTISSLQPEDVATYYCQQYSSYPYTFGQGTKVEIKESKYGPPCPPCPAPPVAGPSVFLFPPKPKDTLMISRTPEVTCVVVDVSQEDPEVQFNWYVDGVEVHNAKTKPREEQFQSTYRVVSVLTVLHQDWLNGKEYKCKVSNKGLPSSIEKTISKAKGQPREPQVYTLPPSQEEMTKNQVSLTCLVKGFYPSDIAVEWESNGQPENNYKTTPPVLDSDGSFFLYSRLTVDKSRWQEGNVFSCSVMHEALHNHYTQKSLSLSLGKMFWVLVVVGGVLACYSLLVTVAFIIFWVRSKRSRGGHSDYMNMTPRRPGPTRKHYQPYAPPRDFAAYRSRVKFSRSADAPAYQQGQNQLYNELNLGRREEYDVLDKRRGRDPEMGGKPRRKNPQEGLYNELQKDKMAEAYSEIGMKGERRRGKGHDGLYQGLSTATKDTYDALHMQALPPR
notes: also called SLAMF7 CAR; SLAMF7-CAR
